Experimental data: patent US20040024231A1, “17Alpha fluoroalkyl steroids, method for producing the same and pharmaceutical compositions containing said compounds” (priority 2000, published 2004)

Biological target: T1, androgen receptors (Homo sapiens, UniProt P10275)
T1 sequence (P10275 1-920): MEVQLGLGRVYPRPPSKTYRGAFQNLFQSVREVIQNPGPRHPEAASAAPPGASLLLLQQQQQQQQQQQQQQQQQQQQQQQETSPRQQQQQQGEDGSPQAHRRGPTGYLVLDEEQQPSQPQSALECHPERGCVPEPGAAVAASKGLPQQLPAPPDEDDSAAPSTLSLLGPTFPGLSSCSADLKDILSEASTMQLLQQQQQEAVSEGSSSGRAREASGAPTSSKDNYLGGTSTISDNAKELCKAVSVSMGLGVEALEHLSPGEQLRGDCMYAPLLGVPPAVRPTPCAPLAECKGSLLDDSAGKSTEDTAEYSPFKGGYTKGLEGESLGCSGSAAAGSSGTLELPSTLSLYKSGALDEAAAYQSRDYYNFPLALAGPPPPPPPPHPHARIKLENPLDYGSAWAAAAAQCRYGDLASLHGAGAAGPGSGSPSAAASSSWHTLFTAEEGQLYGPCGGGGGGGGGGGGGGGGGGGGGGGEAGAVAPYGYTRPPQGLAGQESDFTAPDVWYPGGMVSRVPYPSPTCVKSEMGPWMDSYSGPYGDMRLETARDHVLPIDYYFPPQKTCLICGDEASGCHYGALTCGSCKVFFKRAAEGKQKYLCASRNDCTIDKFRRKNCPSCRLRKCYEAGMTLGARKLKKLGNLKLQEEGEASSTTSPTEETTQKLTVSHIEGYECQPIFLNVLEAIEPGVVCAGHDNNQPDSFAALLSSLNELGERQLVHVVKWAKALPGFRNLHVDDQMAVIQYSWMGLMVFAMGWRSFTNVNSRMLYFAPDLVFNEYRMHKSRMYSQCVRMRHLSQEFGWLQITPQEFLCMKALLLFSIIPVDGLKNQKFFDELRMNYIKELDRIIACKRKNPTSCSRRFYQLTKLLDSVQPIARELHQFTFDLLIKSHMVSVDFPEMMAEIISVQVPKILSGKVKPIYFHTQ
Assay: receptor binding affinities to the androgen receptors (RBA)
Conditions: receptor binding affinity to the androgen receptors; R 1881 (Methyltrienolone) = 100

Row | Compound | RBA [%]
1 | CC12CCC3C4CCC(=O)C(O)=C4CCC3C1CCC2(O)C(F)(F)C(F)(F)F (stereo not drawn) [17β,4-Dihydroxy-17α-pentafluoroethyl-estr-4-en-3-one] | 20
2 | CC12CCC3C4CCC(=O)C(O)=C4CCC3C1CCC2(O)C(F)(F)F (stereo not drawn) [17β,4-Dihydroxy-17α-trifluoromethyl-estr-4-en-3-one] | 15
3 | CC12CCC(=O)C=C1CCC1C2C(O)CC2(C)C1CCC2(O)C(F)(F)F (stereo not drawn) [17β,11β-Dihydroxy-17α-trifluoromethyl-androst-4-en-3-one] | 8.6
4 | CC12CCC3C4CCC(=O)C(Cl)=C4CCC3C1CCC2(O)C(F)(F)C(F)(F)F (stereo not drawn) [17β-Hydroxy-17α-pentafluoroethyl-4-chloro-estr-4-en-3-one] | 27
5 | CC1CC2=CC(=O)CCC2C2CCC3(C)C(CCC3(O)C(F)(F)C(F)(F)F)C12 (stereo not drawn) [17β-Hydroxy-17α-pentafluoroethyl-7α-methyl-estr-4-en-3-one] | 34
6 | CC12CCC3C4CCC(=O)C=C4CCC3C1CCC2(O)C(F)(F)C(F)(F)F (stereo not drawn) [17β-Hydroxy-17α-pentafluoroethyl-estr-4-en-3-one] | 21
7 | CC12CCC(=O)C(Cl)=C1CCC1C2CCC2(C)C1CCC2(O)C(F)(F)F (stereo not drawn) [17β-Hydroxy-17α-trifluoromethyl-4-chloro-androst-4-en-3-one] | 20
8 | CC12CCC3C4CCC(=O)C(Cl)=C4CCC3C1CCC2(O)C(F)(F)F (stereo not drawn) [17β-Hydroxy-17α-trifluoromethyl-4-chloro-estr-4-en-3-one] | 41
9 | CC1CC2=CC(=O)CCC2(C)C2CCC3(C)C(CCC3(O)C(F)(F)F)C12 (stereo not drawn) [17β-Hydroxy-17α-trifluoromethyl-7α-methyl-androst-4-en-3-one] | 30
10 | CC1CC2=CC(=O)CCC2C2CCC3(C)C(CCC3(O)C(F)(F)F)C12 (stereo not drawn) [17β-Hydroxy-17α-trifluoromethyl-7α-methyl-estr-4-en-3-one] | 40
11 | C[C@]12CCC(=O)C=C1CC[C@@H]1[C@@H]2CC[C@@]2(C)[C@H]1CC[C@@]2(O)C(F)(F)F [17β-Hydroxy-17α-trifluoromethyl-androst-4-en-3-one] | 9.4
12 | C[C@]1(O)CC[C@H]2[C@@H]3CCC4=CC(=O)CCC4=C3C=C[C@@]21C [R 1881 (Methyltrienolone), Methyltrienolone, reference compound] | 100
